Data on 16 compounds can be found in publication PMC11220827 (Frontiers in Pharmacology, 2024).

Data set [1] relates to HepG2 cells. The data set can be described thus: cells. The class given is cell-based.
For data set [2], the target named is Transthyretin (TTR) (Homo sapiens, UniProt P02766). Particulars: reference.
Method: DMSO (1% compound stock in incubation mixture). The incubation mixture was transferred to 96 -
was measured on a Berthold luminometer.
Serial dilutions of the compounds were incubated in Tris -buffer (pH 8.0) overnight at 4°C in the
incubation mixture). After incubation, TTR-bound and free T4 were separated on a Bio-Gel P-6DG
column. The eluate was added to assay medium after which TRβ CALUX cells were exposed for 24 h
(see CALUX bioassays). For this TRβ CALUX exposure, serum-free assay medium was used.
The mark [3] stands for this setting: HepG2, 24 h, NR = No response observed.

Where two headings read alike, the source gives them in different places.

For the compound `CC[C@@]1(O)C(=O)OCc2c1cc1n(c2=O)Cc2cc3ccccc3nc2-1` [(S)-(+)-camptothecin, reference compound], in data set [1] (HepG2, 24 h), the “DNA damage: Phospho-p53: MEC” value stood at 0.412 µM and the “DNA damage: p-H2AX: MEC” value is recorded as 1.06 µM. In data set [1] (setting [3]), the “DNA damage: Phospho-p53: Effect” value is given as “increase” and the “DNA damage: p-H2AX: Effect” value is “increase”. The AC50 in data set [1] (HepG2, 24 h, read-out: DNA damage: Phospho-p53: AC50) was 1.25 µM. The AC50 in data set [1] (HepG2, 24 h, read-out: DNA damage: p-H2AX: AC50) was 9.1 µM.
Take `CCCCCC[C@H]1C(=O)O[C@H](C)[C@H](NC(=O)c2cccc(NC=O)c2O)C(=O)O[C@@H](C)[C@@H]1OC(=O)CC(C)C` [Antimycin A, reference compound]: in data set [1] (setting [3]), the “Mitochondrial mass: Effect” value is “increase”. In data set [1] (Homo sapiens, HepG2, 24 h, read-out: Mitochondrial mass: AC50), the AC50 came to 0.245 µM.
`c1ccc2c(c1)cc1ccc3cccc4ccc2c1c34` [Benzo(a)pyrene, reference compound]: in data set [1] (Homo sapiens, HepG2, 24 h, read-out: AhR Translocation: AC50), the AC50 was above 100 µM. In addition, the “AhR Translocation: MEC” value in data set [1] (human, 24 h) is reported as 0.389 µM.
As to `[Cd+2].[Cl-].[Cl-]` [Cadmium (II) chloride, reference compound], in data set [1] (HepG2, 24 h), the “Metal stress: MTF1: MEC” value is recorded as 0.0751 µM and the “Metal stress: metallothionein: MEC” value stood at 0.0751 µM. In data set [1] (setting [3]), the “Metal stress: MTF1: Effect” value is listed as “increase” and the “Metal stress: metallothionein: Effect” value is given as “increase”. The AC50 in data set [1] (HepG2, 24 h, read-out: Metal stress: MTF1: AC50) is 7.05 µM. The AC50 in data set [1] (HepG2, 24 h, read-out: Metal stress: metallothionein: AC50) stood at 7.05 µM.
On to `CC(=O)N(O)CCCCCNC(=O)CCC(=O)N(O)CCCCCNC(=O)CCC(=O)N(O)CCCCCN.CS(=O)(=O)O` [Deferoxamine mesylate salt, reference compound], for which, in data set [1], the “Inflammation & pH: HIF1α: Effect” value is “increase”, the “Inflammation & pH: HIF1α: MEC” value was 6.2 µM, the “Inflammation & pH: ICAM-1: Effect” value is “increase” and the “Inflammation & pH: ICAM-1: MEC” value worked out at 17.4 µM. Further, in data set [1], the “Inflammation & pH: intracellular pH: Effect” value is given as “increase” and the “Inflammation & pH: intracellular pH: MEC” value is given as 6.46 µM. In addition, the AC50 in data set [1] (HepG2, 24 h, read-out: Inflammation & pH: HIF1α: AC50) is 4.31 µM. For the same compound, the AC50 in data set [1] (HepG2, 24 h, read-out: Inflammation & pH: ICAM-1: AC50) is above 200 µM. Further, the AC50 in data set [1] (HepG2, 24 h, read-out: Inflammation & pH: intracellular pH: AC50) was above 200 µM.
`C=C(CC)C(=O)c1ccc(OCC(=O)O)c(Cl)c1Cl` [Ethacrynic acid, reference compound]: in data set [1] (Homo sapiens, HepG2, 24 h, read-out: Oxidative stress: HMOX1: AC50), the AC50 worked out at 19.2 µM. Besides, the AC50 in data set [1] (Homo sapiens, HepG2, 24 h, read-out: Oxidative stress: NRF2: AC50) amounted to 28 µM. Moreover, in data set [1] (Homo sapiens, HepG2, 24 h, read-out: Oxidative stress: SRXN1: AC50), the AC50 turned out to be 19 µM. For the same compound, in data set [1] (human, 24 h), the “Oxidative stress: HMOX1: MEC” value is given as 0.824 µM, the “Oxidative stress: NRF2: MEC” value is given as 3.52 µM and the “Oxidative stress: SRXN1: MEC” value is listed as 6.17 µM.
`C[C@H](CCC(=O)O)C[C@H](C)C[C@H](C)C(=O)/C=C(\O)[C@H](C)C[C@H](C)C/C=C/[C@@H](C)[C@@H](O)[C@@H](C)[C@@H](O)C[C@@H]1CC[C@@](C)([C@H]2CC[C@@](C)([C@@H](C)O)O2)O1` [Ionomycin, reference compound]: in data set [1] (HepG2, 24 h), the “Apoptosis & necrosis: caspase 3/7: MEC” value was 0.0225 µM, the “Apoptosis & necrosis: cell cycle arrest: MEC” value was 0.0283 µM and the “Inflammation & pH: IL-8: MEC” value is 0.496 µM. Besides, in data set [1] (setting [3]), the “Apoptosis & necrosis: caspase 3/7: Effect” value is listed as “increase”, the “Apoptosis & necrosis: cell cycle arrest: Effect” value is recorded as “decrease” and the “Inflammation & pH: IL-8: Effect” value was “increase”. In addition, the AC50 in data set [1] (Homo sapiens, HepG2, 24 h, read-out: Apoptosis & necrosis: caspase 3/7: AC50) amounted to 0.798 µM. The AC50 in data set [1] (Homo sapiens, HepG2, 24 h, read-out: Apoptosis & necrosis: cell cycle arrest: AC50) was 0.056 µM. For the same compound, the AC50 in data set [1] (Homo sapiens, HepG2, 24 h, read-out: Apoptosis & necrosis: cell membrane permeability: AC50) worked out at 30.8 µM. In data set [1] (Homo sapiens, HepG2, 24 h, read-out: Inflammation & pH: IL-8: AC50), the AC50 was above 10 µM.
`CCCCS(=N)(=O)CCC(N)C(=O)O` [L-BSO, reference compound]: in data set [1], the “GSH content: Effect” value is “decrease” and the “GSH content: MEC” value is reported as 0.725 µM. Further, the AC50 in data set [1] (HepG2, 24 h, read-out: GSH content: AC50) turned out to be 37.5 µM.
Turning to `Cc1oncc1C(=O)Nc1ccc(C(F)(F)F)cc1` [Leflunamide, reference compound], in data set [1], the “Nuclear size: Effect” value was “increase” and the “Nuclear size: MEC” value is given as 1.18 µM. Also, the AC50 in data set [1] (HepG2, 24 h, read-out: Nuclear size: AC50) is 9.87 µM.
With `CN(CCOc1ccc(CC2SC(=O)NC2=O)cc1)c1ccccn1` (stereo not shown) [Rosiglitazone, reference compound], in data set [1] (Homo sapiens, HepG2, 24 h, read-out: Mitochondrial oxidative stress: PGC1α: AC50), the AC50 is above 125 µM. Further, the “Mitochondrial oxidative stress: PGC1α: MEC” value in data set [1] (human, 24 h) is listed as 67.8 µM.
Take `C=C(C)[C@H]1Cc2c(ccc3c2O[C@@H]2COc4cc(OC)c(OC)cc4[C@@H]2C3=O)O1` [Rotenone, reference compound]: in data set [1] (HepG2, 24 h), the “Cellular ATP: MEC” value is recorded as below 0.04 µM, the “LDH release: MEC” value is 0.138 µM, the “Mitochondrial membrane potential: MEC” value amounted to 0.00254 µM and the “Oxidative stress (ROS): MEC” value is reported as 0.681 µM. For the same compound, in data set [1] (HepG2, 24 h), the “Seahorse assay: Extracellular acidification rate (ECAR): MEC” value stood at 0.00546 µM, the “Seahorse assay: oxygen consumption rate (OCR): MEC” value is 0.000832 µM and the “Seahorse assay: reserve capacity: MEC” value stood at 0.000657 µM. For the same compound, in data set [1] (Homo sapiens, HepG2, 24 h, read-out: Cellular ATP: AC50), the AC50 was found to be 3.05 µM. Besides, the AC50 in data set [1] (Homo sapiens, HepG2, 24 h, read-out: LDH release: AC50) is 57.6 µM. Moreover, in data set [1] (Homo sapiens, HepG2, 24 h, read-out: Mitochondrial membrane potential: AC50), the AC50 was 0.094 µM. Also, the AC50 in data set [1] (Homo sapiens, HepG2, 24 h, read-out: Oxidative stress (ROS): AC50) was above 100 µM. The AC50 in data set [1] (Homo sapiens, HepG2, 24 h, read-out: Seahorse assay: Extracellular acidification rate (ECAR): AC50) was 0.00549 µM. In data set [1] (Homo sapiens, HepG2, 24 h, read-out: Seahorse assay: oxygen consumption rate (OCR): AC50), the AC50 was 0.00432 µM. Moreover, in data set [1] (Homo sapiens, HepG2, 24 h, read-out: Seahorse assay: reserve capacity: AC50), the AC50 amounted to 0.00248 µM.
As for `CN[C@H]1CC[C@@H](c2ccc(Cl)c(Cl)c2)c2ccccc21` [Sertraline, reference compound], in data set [1], the “ER stress panel 2: PERK: Effect” value was “increase”, the “Phospholipidosis: Effect” value is on record as “increase” and the “Steatosis: Effect” value was “increase”. For the same compound, the AC50 in data set [1] (Homo sapiens, HepG2, 24 h, read-out: ER stress panel 2: PERK: AC50) is above 6.25 µM. Further, in data set [1] (human, 24 h), the “ER stress panel 2: PERK: MEC” value stood at 2.17 µM, the “Phospholipidosis: Fold increase” value was 4.16, the “Phospholipidosis: MEC” value amounted to 0.0965 µM and the “Steatosis: Fold increase” value is 2.02. Also, in data set [1] (human, 24 h), the “Steatosis: MEC” value is on record as 8.36 µM.
For the compound `[Cl-].[Na+]` [Sodium chloride, reference compound], the “Osmotic & heat shock: NFAT: MEC” value in data set [1] (HepG2, 24 h) came out at 1430 µM. Further, the “Osmotic & heat shock: NFAT: Effect” value in data set [1] (setting [3]) was “increase”. Moreover, the AC50 in data set [1] (HepG2, 24 h, read-out: Osmotic & heat shock: NFAT: AC50) was above 80000 µM.
Turning to `OC[C@@H](O)[C@@H](O)[C@H](O)[C@@H](O)CO` [Sorbitol, reference compound], in data set [1], the “Osmotic & heat shock: hsp70: Effect” value is given as “increase”. Further, the AC50 in data set [1] (Homo sapiens, HepG2, 24 h, read-out: Osmotic & heat shock: hsp70: AC50) came out at 91700 µM. In addition, the “Osmotic & heat shock: hsp70: MEC” value in data set [1] (human, 24 h) stood at 29000 µM.
As for `CC(C)(c1cc(Br)c(O)c(Br)c1)c1cc(Br)c(O)c(Br)c1` [Tetrabromobisphenol A, reference compound], the “TTR binding (thyroid) LOEC, reference compound” value in data set [2] is recorded as −7.9 Log M.
As for Tunicamycin [reference compound], in data set [1] (HepG2, 24 h), the “ER stress panel 1: BiP: MEC” value is reported as below 0.391 µM, the “ER stress panel 1: ER integrity: MEC” value is reported as 0.453 µM, the “ER stress panel 1: XBP1: MEC” value is reported as 0.532 µM and the “ER stress panel 2: ATF4: MEC” value is listed as below 0.391 µM. Also, in data set [1] (HepG2, 24 h), the “ER stress panel 2: CHOP: MEC” value turned out to be 0.955 µM. Besides, in data set [1] (setting [3]), the “ER stress panel 1: BiP: Effect” value is “increase”, the “ER stress panel 1: ER integrity: Effect” value was “increase”, the “ER stress panel 1: XBP1: Effect” value is on record as “increase” and the “ER stress panel 2: ATF4: Effect” value is “increase”. The “ER stress panel 2: CHOP: Effect” value in data set [1] (setting [3]) is given as “increase”. Besides, the AC50 in data set [1] (HepG2, 24 h, read-out: ER stress panel 1: BiP: AC50) is above 1.56 µM. Moreover, the AC50 in data set [1] (HepG2, 24 h, read-out: ER stress panel 1: ER integrity: AC50) came out at 2.22 µM. Besides, in data set [1] (HepG2, 24 h, read-out: ER stress panel 1: XBP1: AC50), the AC50 is above 3.13 µM. Moreover, the AC50 in data set [1] (HepG2, 24 h, read-out: ER stress panel 2: ATF4: AC50) is 27.9 µM. Moreover, the AC50 in data set [1] (HepG2, 24 h, read-out: ER stress panel 2: CHOP: AC50) was above 6.25 µM.
